In data set [1] the test system is THP1 (human monocytic leukemia) cells. Put plainly: MTT antiproliferative assay, THP1. The data set is classed as cell-based. Conditions: for IC50: Homo sapiens, THP-1, 72 h, MTT, mean ± SD of three independent experiments; for SI (BJ) THP1: SI = IC50 BJ / IC50 THP1; for SI (MDCK) THP1: SI = IC50 MDCK1 / IC50 THP1. How it is done: (§1) The growth inhibition activity was assessed according to the slightly modified procedure performed at the National Cancer Institute, Developmental Therapeutics Program.
(§2) Examined compounds were dissolved in DMSO (1 × 10^−2 M). The experiments were carried out on seven human tumor cell lines and two normal cell lines. The following cell lines were used: HeLa (human cervical adenocarcinoma; purchased from ATCC), CaCo-2 (human colorectal adenocarcinoma), HuT78 (T-cell lymphoma), THP-1 (acute monocytic leukemia), SW620 (colorectal adenocarcinoma, metastatic), MDA-MB-231 (human breast adenocarcinoma), HL60 (promyelocytic leukemia cell line), foreskin fibroblast cells (BJ) and MDCK1 (Madine–Darby canine kidney fibroblast like cells). MDCK1 cells were used between 24 and 26 passages.
(§3) Adherent cells were cultured in the Dulbecco’s modified Eagle medium—DMEM (Gibco, EU) supplemented with 10 % heat-inactivated fetal bovine serum (FBS, Gibco, EU), 2 mM glutamine, and 100 U/0.1 mg penicillin/streptomycin. Cells on suspension were cultured in RPMI 1640 (Gibco, EU) medium supplemented with 10 % FBS (Gibco, EU), 2 mM glutamine, 1 mM sodium pyruvate, 10 mM HEPES. Cells were grown in humidified atmosphere under the conditions of 37 °C/5% of CO2 gas in the CO2 incubator (IGO 150 CELLlife^TM, JOUAN, Thermo Fisher Scientific, Waltham, MA, USA). A erythrosin B (Sigma-Aldrich, St. Louis, MO, USA) dye exclusion method was used to assess cell viability before plating.
(§4) Adherent cells (HeLa, CaCo-2, MCF-7 and MDCK-1) were plated in 96-well flat bottom plates (Greiner, Frickenhausen, Austria) at a concentration of 2 × 10^4 cells/mL. Suspension cells (THP-1 and HuT78) were plated in 96-well microtiter plates (Sarstead, Newton, USA) at a concentration of 1 × 10^5 cells/mL. Twenty-four hours later, cells were treated with test agents in […] 10-fold dilutions ([…] to 10^−4 M) and incubated for further 72 h. Working dilutions were freshly prepared on the day of testing. The solvent was also tested for eventual inhibitory activity by adjusting its concentration to be the same as in working concentrations. After 72 h of incubation, the cell growth rate was evaluated by performing the MTT assay, which detects dehydrogenase activity in viable cells. For this purpose, upon completion of the incubation period, growth medium was discarded and 50 μL of MTT was added to each well at a concentration of 5 mg/mL. After four hours of incubation at 37 °C, water insoluble MTT-formazan crystals were dissolved in 150 μL of dimethyl-sulfoxide (DMSO) for adherent cells, and in 10 % SDS with 0.01 M/L HCl for cells grown in suspension. The absorbance (OD, optical density) was measured on a microplate reader (iMark, BIO RAD, Hercules, CA, USA) at 595 nm.
(§5) Percent of life cells was calculated as follows: % = OD (sample)–OD (background)/OD (control)–OD (background) × 100.
(§6) Optical density (OD) of background for adherent cells is the OD of MTT solution and DMSO; OD (background) for suspension cells is OD of the culture medium with MTT and 10% SDS with 0.01 M/L HCl; OD (control) is the OD of the cells growth without tested compounds.
(§7) Calculation of GI50 value curves and QC analysis is performed by using the Excel tools and GraphPadPrism software (La Jolla, CA), v. 5.03. Briefly, individual concentration effect curves are generated by plotting the logarithm of the concentration of tested compounds(X) vs. corresponding percent inhibition values (Y) using least squares fit. The best fit GI50 values are calculated using Log (inhibitor) versus normalized response—Variable slope equation, where Y Ľ 100/(1 ţ 10 ((LogIC50 _ X) * HillSlope)). QC criteria parameters (Z0, S:B, R2, HillSlope) were checked for every GI50 curve.

In data set [2] the test system is MDA-MB-231 (human breast adenocarcinoma) cells. Put plainly: MTT antiproliferative assay, MDA-MB-231. It counts as cell-based. As to conditions: for IC50: Homo sapiens, MDA-MB-231, 72 h, MTT, mean ± SD of three independent experiments. On the procedure: as §1, §2, §3, §4, §5, §6, §7
In a further data set the test system is HuT78 cells. Put plainly: Cell cycle analysis (PI, flow cytometry). The data set is classed as cell-based, human. As to conditions: HuT78, 5 µM, 24 h, versus untreated cells. On the procedure: The HuT78 cells were plated in 6-well plates at a concentration of 5 × 10^5 cells per well and treated 24 h and 48 h with selected compounds 36c, 42a, 42c, 45a, 45b, 45c and 46c at a concentration of 5 μM. After drug treatment, the cells were fixed with ice-cold 70% ethanol in phosphate-buffered saline (PBS) and incubated with 0.3 μg/mL propidium iodide for 30 min at room temperature. Before being analyzed by flow cytometry (BD FACSCalibur, Becton Dickinson, San Jose, CA, SAD), samples were treated with 0.4 μg/mL RNase A for 5 min at room temperature. The resultant DNA histograms were generated and analyzed using FlowJo 7.6 software (Treestar, Inc, Ashland, OR, USA). Experiments were done in duplicate and the quantitative data are reported as average value ± standard deviation. Comparisons between control (non-treated) and treated groups were done using one-way analysis of variance (ANOVA) with Tukey–Kramer’s post hoc test with MedCalc statistical program. P-value less than 0.05 was considered statistically significant.
(In general: A flow cytometer gives signals particle by particle.)

Data set [3] deals with MDCK1 (Madin–Darby canine kidney) cells. Nature of the data set: MTT antiproliferative assay, non-tumor MDCK1 cells. The data set is classed as cell-based. Conditions: Canis lupus familiaris, MDCK1, 72 h, mean ± SD of three independent experiments, normal cells. Put shortly: (§8)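 Adherent cells (2 × 10^4 cells/mL) or suspension cells (1 × 10^5 cells/mL) were exposed 24 h after plating to five 10-fold dilutions (10^−7 to 10^−4 M) for 72 h. MTT was then added for 4 h at 37 °C and absorbance read at 595 nm. GI50 came from variable-slope log(inhibitor) vs normalized response fits.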
Background: Formazan colour is commonly taken as a measure of viable cells.

In data set [4] the test system is HeLa (cervical adenocarcinoma) cells. Put plainly: MTT antiproliferative assay, HeLa. The data set is classed as cell-based. Conditions: Homo sapiens, 72 h, mean ± SD of three independent experiments. The method, boiled down:
as §8

Data set [5] relates to HL60 (promyelocytic leukemia) cells. Nature of the data set: MTT antiproliferative assay, HL60. It counts as cell-based, human. Conditions: for IC50: Homo sapiens, HL-60, 72 h, MTT, mean ± SD of three independent experiments; for SI (MDCK) HL60: SI = IC50 MDCK1 / IC50 HL60; for SI (BJ) HL60: SI = IC50 BJ / IC50 HL60. On the procedure: as §1, §2, §3, §4, §5, §6, §7
The test system of data set [6] is SW620 (colorectal adenocarcinoma, metastatic) cells. Nature of the data set: MTT antiproliferative assay, SW620. It counts as cell-based, human. Conditions: for IC50: Homo sapiens, SW-620, 72 h, MTT, mean ± SD of three independent experiments, read-out: IC50 (µM) SW620. On the procedure:
as §1, §2, §3, §4, §5, §6, §7

In the next data set the test system is human fibroblasts (BJ). Nature of the data set: MTT antiproliferative assay, normal BJ fibroblasts. It counts as cell-based. Conditions: for IC50: Homo sapiens, Fibroblast, 72 h, MTT, mean ± SD of three independent experiments, normal cells. The method, boiled down:
as §8

In data set [7] the test system is CaCo-2 (colon adenocarcinoma) cells. Nature of the data set: MTT antiproliferative assay, CaCo-2. The data set is classed as cell-based, human. As to conditions: Homo sapiens, Caco-2; 72 h, MTT, mean ± SD of three independent experiments. The method, boiled down: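 CaCo-2 cells, plated at 2 × 10^4 cells/mL in DMEM with 10 % FBS at 37 °C/5% CO2, were treated 24 h later with five 10-fold dilutions (10^−7 to 10^−4 M) for 72 h. Viability was measured by MTT (4 h, formazan dissolved in DMSO, OD 595 nm) against background and untreated controls. GI50 came from log-concentration versus percent-inhibition fits.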

The test system of data set [8] is HuT78 (T-cell lymphoma) cells. Put plainly: MTT antiproliferative assay, HuT78. It counts as cell-based, human. As to conditions: for IC50: Homo sapiens, HuT78, 72 h, 72 h, MTT, mean ± SD of three independent experiments; for SI (MDCK) HuT78: SI = IC50 MDCK1 / IC50 HuT78. The method, boiled down:
as §8

For a further data set, the system named is MCF-7^wt cells. Further details: method as in PMID 23623491. Conditions: estrogen receptor-positive MCF-7^wt cells ref 17,18; cited from earlier work.

Values joined by “and” are separate entries in the source; they are usually repeats but may differ in a detail not shown here. Equal values may be shown once.

The text below walks through data of paper PMC9785280, “Synthesis, Antiproliferative Evaluation and QSAR Analysis of Novel Halogen- and Amidino-Substituted Benzothiazoles and Benzimidazoles” (International Journal of Molecular Sciences, 2022).

As for `COc1cc(-c2nc3ccc(C4=NCCCN4)cc3[nH]2)ccc1OCc1cn(Cc2ccccc2)nn1` [45c], the IC50 (in general, the concentration at which inhibition is half-maximal) in [1] is above 100 µM; in data set [2], above 100 µM; in [3] it was 68.5 ± 22.7 µM; in [4] it was above 100 µM; in data set [5], 25.1 ± 16 µM; in data set [6] it was above 100 µM. Further, the IC50 is above 100 µM in the data set with human fibroblasts (BJ), above 100 µM in data set [7] and 4.1 ± 3.3 µM in data set [8]. The “G2/M phase cell fraction” value in the data set with HuT78 cells was “decrease in G2/M phase”. In [5], the “SI (MDCK) HL60” value is 2.73. The “toxicity to normal BJ cells (in words)” value in the data set on human fibroblasts (BJ) was “not toxic”. Further, in data set [8], the “SI (MDCK) HuT78” value worked out at 16.7.

In the case of `COc1cc(-c2nc3ccc(C4=NCCCN4)cc3[nH]2)ccc1OCC(=O)c1ccccc1` [42c], the IC50 in data set [1] was 19.7 ± 2.4 µM; in data set [2] it was 38.9 ± 4.2 µM; in data set [3] it was above 100 µM; in data set [4], above 100 µM; in [5], 19.5 ± 0.8 µM; in data set [6], 29.8 ± 3 µM. Besides, the half-inhibitory concentration (IC50) is 32.8 ± 4.1 µM in the data set on human fibroblasts (BJ), above 100 µM in data set [7] and 24.9 ± 4.6 µM in [8]. For the same molecule, the “SI (BJ) THP1” value in data set [1] stood at 1.68. Besides, the “SI (MDCK) THP1” value in data set [1] worked out at 5.13. Further, in data set [2] (SI = IC50 MDCK1 / IC50 MDA-MB-231), the “SI (MDCK) MDA-MB-231” value came to 2.57. For the same molecule, the “G2/M phase cell fraction” value with HuT78 cells is reported as “decrease in G2/M phase”. Further, in [5], the “SI (BJ) HL60” value is given as 1.68. Besides, the “SI (MDCK) HL60” value in data set [5] worked out at 5.13. In addition, the “SI (MDCK) SW620” value in data set [6] (SI = IC50 MDCK1 / IC50 SW620) is recorded as 3.36. The “SI (BJ) HuT78” value in data set [8] (SI = IC50 BJ / IC50 HuT78) turned out to be 1.32. Also, in data set [8], the “SI (MDCK) HuT78” value worked out at 4.0.

Turning to `Nc1ccc(-c2nc3ccccc3s2)cc1` [CJM-126], the IC50 in the data set on MCF-7^wt cells was below 0.001 µM.

On to `c1ccc(Cn2cc(COc3ccc(-c4nc5ccc(C6=NCCCN6)cc5[nH]4)cc3)nn2)cc1` [45a], for which, in data set [1], the “SI (BJ) THP1” value was 69.5 and 70. Further, the “SI (MDCK) THP1” value in [1] came to 125. Further, the IC50 in data set [2] was above 100 µM; in data set [3] it was above 100 µM; in [4] it was above 100 µM; in [5], 48.1 ± 16.4 µM; in data set [6], above 100 µM; in [7], above 100 µM. The molecule also yielded an IC50 in data set [8] of 4.8 ± 3.6 µM. Also, in the data set on HuT78 cells, the “G2/M phase cell fraction” value was “decrease in G2/M phase”. For the same molecule, the “SI (BJ) HL60” value in data set [5] was found to be 1.15. Moreover, the “SI (MDCK) HL60” value in [5] is 2.07. In data set [8], the “SI (MDCK) HuT78” value was 20.83.

Consider `Fc1cc(-c2nc3ccc(C4=NCCCN4)cc3[nH]2)ccc1OCc1cn(Cc2ccccc2)nn1` [45b], for which the IC50 in [1] was 2.5 ± 1.5 µM; in data set [2], above 100 µM; in data set [3], 46.1 ± 14.8 µM; in [4], above 100 µM; in data set [5] it was 30 ± 12.3 µM; in data set [6], above 100 µM. In addition, the IC50 in the data set with human fibroblasts (BJ) was 82.1 ± 0.4 µM; in [7], above 100 µM; in [8] it was 5.5 ± 4 µM. Moreover, in [1], the “SI (BJ) THP1” value was determined as 32.84. Besides, the “SI (MDCK) THP1” value in data set [1] is on record as 18.44. For the same molecule, the “G2/M phase cell fraction” value with HuT78 cells is recorded as “decrease in G2/M phase”. The “SI (BJ) HL60” value in data set [5] amounted to 2.74. Besides, in [5], the “SI (MDCK) HL60” value stood at 1.54. Also, the “SI (MDCK) HuT78” value in data set [8] is 8.36.
